From patent publication US20230112845A1, “COMPOSITIONS OF BERBERINE URSODE[…] METHODS THEREOF FOR TREATING FATTY LIVER DISEASE, DIABETES AND HYPERLIPIDEMIA” (SHENZHEN HIGHTIDE BIOPHARMACEUTICAL LTD., priority 2020, published 2023)
“Also recorded” adds a separate entry of the source.

Assays:
[1] = test system: subjects with a history of hypercholesterolemia; assay: Phase 1b study: safety and tolerability; assay type: in vivo, human; conditions: 28 days
Protocol: A double-blind, randomized, placebo-controlled, dose ranging study was carried out that compared three doses of berberine ursodeoxycholate (BUDCA, a.k.a. HTD1801) to placebo in a cohort of subjects with a history of hypercholesterolemia and serum LDL-c levels above 2.59 mmol/L (>99.9 mg/dL). BUDCA was administered in two divided doses each day for 28 days. The primary endpoints of the study were safety and tolerability of this new compound, as well as its effect in lowering serum lipid and lipoprotein concentrations.
Subjects underwent an initial assessment and were then randomized to receive ascending doses of BUDCA in three sequential dosing groups: Group I received 500 mg/day of BUDCA or matching placebo in a ratio of 3:1. Group II received 1,000 mg/day of BUDCA or placebo, 3:1 and Group III received 2,000 mg/day BUDCA or placebo, 3:1. Study medication or placebo was given in two equal doses daily for 28 days. […]
The groups were enrolled sequentially, but follow-up overlapped (the next cohort could begin during the follow-up period of the prior cohort) (FIG. 1). The decision to move to the next dose level was based upon tolerability and safety findings, as assessed by a Safety Monitoring Committee. […] After having vital signs measured and baseline laboratory tests taken, the subject was given a morning meal and then observed while taking their first dose of BUDCA with a glass of water. […]

[2] = test system: patients with presumed NASH and type 2 diabetes; assay: Phase 2 trial: adverse events, safety and tolerability; assay type: in vivo, human; conditions: for Subjects with TEAEs Related to Study Drug: Diarrhea, number (%) / Subjects with TEAEs Related to Study Drug: GERD, number (%) / Subjects with TEAEs Related to Study Drug: Nausea, number (%) / Subjects with TEAEs requiring discontinuation of study drug: Abdominal distension, number (%) / Subjects with TEAEs requiring discontinuation of study drug: Acute myocardial infarction, number (%) / Subjects with TEAEs requiring discontinuation of study drug: Diarrhea, number (%) / Subjects with TEAEs requiring discontinuation of study drug: GERD, number (%) / Subjects with TEAEs requiring discontinuation of study drug: Headache and Facial Rash, number (%) / Subjects with TEAEs requiring discontinuation of study drug: Melena, number (%): placebo 0; for Subjects with TEAEs Related to Study Drug: Headache, number (%) / Subjects with TEAEs requiring discontinuation of study drug: Bladder Cancer, number (%): placebo 1 (3%)
Protocol: A prospective, randomized, placebo-controlled trial of two doses of BUDCA administered orally was conducted in a cohort of 100 subjects with fatty liver disease and diabetes. Treatment was for 18 weeks and endpoints measured included reduction in liver fat content measured by […] proton density fat fraction, improvement in glycemic control, changes in liver-associated enzymes, safety and tolerability.
Patients with diabetes and presumed NASH were randomized into one of three treatment groups, as follows: 1) BUDCA 500 mg BID 2) 1,000 mg BID and 3) matching placebo. Presumed NASH was defined based largely on magnetic resonance imaging derived proton density fat fraction (MRI-PDFF) of 10% or more. Additional inclusion criteria further enriched the study population for having NASH by virtue of requiring corrected T1 (cT1) of more than 830 milliseconds and elevated serum aspartate aminotransferase (AST)≥20 units per liter (6). Subjects had to be overweight or obese with body mass index of 25 kg/m^2 or more.
Descriptive Statistics were used to summarize continuous data, and frequencies and percentages were used to summarize categorical data. The Safety Set consisted of all subjects who received at least one dose of study treatment. The Modified Efficacy Set is a subset of the Safety Set consisting of subjects that had at least one post-dose MRI-PDFF assessment. […] The primary endpoint was an absolute change from Baseline to Week 18 (or ET) in Liver Fat Content. Primary Endpoint summary measures were provided in both the Efficacy and Modified Efficacy sets, with the Efficacy Set prespecified as the primary analysis set. All other endpoints were prespecified to use the Modified Efficacy Set. Comparisons between active treatment groups relative to placebo were tested using Analysis of Covariance (ANCOVA) with treatment group as a fixed effect and baseline value of the parameters of interest as covariates. ANCOVA based LS Means and raw means have been reported. For statistical analysis of laboratory parameters (i.e. P-values), multiple imputation was used to take missing data into account. A two-sided alpha level of 0.05 without adjustment for multiple tests was used to indicate statistical significance. Analyses were performed using SAS System version 9.4.

COc1ccc2cc3[n+](cc2c1OC)CCc1cc2c(cc1-3)OCO2.C[C@H](CCC(=O)[O-])[C@H]1CC[C@H]2[C@@H]3[C@@H](O)C[C@@H]4C[C@H](O)CC[C@]4(C)[C@H]3CC[C@]12C [BUDCA, berberine ursodeoxycholate] was tested, and the “frequency of treatment-related adverse events” value ([1]; active drug, all doses, placebo 66%) was 67%, the tolerability ([1]; up to 2,000 mg per day) was “generally well tolerated” and the tolerability ([2]; 500 mg BID and 1,000 mg BID, 18 weeks) was “generally well tolerated; also recorded: relatively well tolerated”. For the same molecule, the “Subjects with TEAEs Related to Study Drug: Diarrhea, number (%)” value ([2]; 500 mg BID, N = 33) was 4 (12%), the “Subjects with TEAEs Related to Study Drug: GERD, number (%)” value ([2]; 500 mg BID, N = 33) was 2 (6%) and the “Subjects with TEAEs Related to Study Drug: Nausea, number (%)” value ([2]; 500 mg BID, N = 33) was 1 (3%). The “Subjects with TEAEs requiring discontinuation of study drug: Abdominal distension, number (%)” value ([2]; 500 mg BID, N = 33) was 0, the “Subjects with TEAEs requiring discontinuation of study drug: Acute myocardial infarction, number (%)” value ([2]; 500 mg BID, N = 33) was 0 and the “Subjects with TEAEs requiring discontinuation of study drug: Diarrhea, number (%)” value ([2]; 500 mg BID, N = 33) was 0. For the same molecule, the “Subjects with TEAEs requiring discontinuation of study drug: GERD, number (%)” value ([2]; 500 mg BID, N = 33) was 1 (3%), the “Subjects with TEAEs requiring discontinuation of study drug: Headache and Facial Rash, number (%)” value ([2]; 500 mg BID, N = 33) was 0 and the “Subjects with TEAEs requiring discontinuation of study drug: Melena, number (%)” value ([2]; 500 mg BID, N = 33) was 0. The “Subjects with TEAEs Related to Study Drug: Headache, number (%)” value ([2]; 500 mg BID, N = 33) was 2 (6%), the “Subjects with TEAEs requiring discontinuation of study drug: Bladder Cancer, number (%)” value ([2]; 500 mg BID, N = 33) was 0 and the “Subjects with TEAEs Related to Study Drug: Diarrhea, number (%)” value ([2]; 1,000 mg BID, N = 34) was 9 (26%). For the same molecule, the “Subjects with TEAEs Related to Study Drug: GERD, number (%)” value ([2]; 1,000 mg BID, N = 34) was 0, the “Subjects with TEAEs Related to Study Drug: Nausea, number (%)” value ([2]; 1,000 mg BID, N = 34) was 5 (15%) and the “Subjects with TEAEs requiring discontinuation of study drug: Abdominal distension, number (%)” value ([2]; 1,000 mg BID, N = 34) was 1 (3%). The “Subjects with TEAEs requiring discontinuation of study drug: Acute myocardial infarction, number (%)” value ([2]; 1,000 mg BID, N = 34) was 1 (3%), the “Subjects with TEAEs requiring discontinuation of study drug: Diarrhea, number (%)” value ([2]; 1,000 mg BID, N = 34) was 2 (6%) and the “Subjects with TEAEs requiring discontinuation of study drug: GERD, number (%)” value ([2]; 1,000 mg BID, N = 34) was 1 (3%). The “Subjects with TEAEs requiring discontinuation of study drug: Headache and Facial Rash, number (%)” value ([2]; 1,000 mg BID, N = 34) was 2 (6%), the “Subjects with TEAEs requiring discontinuation of study drug: Melena, number (%)” value ([2]; 1,000 mg BID, N = 34) was 1 (3%) and the “Subjects with TEAEs Related to Study Drug: Headache, number (%)” value ([2]; 1,000 mg BID, N = 34) was 1 (3%). For the same molecule, the “Subjects with TEAEs requiring discontinuation of study drug: Bladder Cancer, number (%)” value ([2]; 1,000 mg BID, N = 34) was 0 and the “serious adverse event in the high dose group, relation to study drug” value ([2]; 1,000 mg BID, one serious adverse event) was “not related to the study drug”.
